Reference: ChEMBL document CHEMBL1140386, “Pharmacophore-based design of HIV-1 integrase strand-transfer inhibitors” (J Med Chem, 2005)

Key:
[1] = biological target: T1, Human immunodeficiency virus type 1 integrase (Human immunodeficiency virus 1, UniProt Q7ZJM1)
Description: Strand transfer inhibitory activity against HIV-1 integrase

[2] = biological target: T1, Human immunodeficiency virus type 1 integrase; experiment: In vitro concentration required to inhibit the HIV-1 integrase 3'-processing
[3] = biological target: T1, Human immunodeficiency virus type 1 integrase; experiment: In vitro concentration required to inhibit the overall HIV-1 integrase strand transfer
[4] = biological target: T1, Human immunodeficiency virus type 1 integrase; experiment: In vitro concentration required to inhibit the HIV-1 integrase strand transfer
MT4 [5] = experiment: Cytotoxic concentration required to reduce MT-4 cell viability; assay type: functional; conditions: Homo sapiens
MT4 [6] = experiment: Selectivity index was measured by the ratio of CC50/EC50; assay type: functional
[7] = tested on: Human immunodeficiency virus 1; experiment: Effective concentration required to reduce HIV-1-induced cytopathic effect in MT-4 cells; assay type: functional, organism-based; conditions: Human immunodeficiency virus 1, MT4

T1 sequence (Q7ZJM1 whole entry): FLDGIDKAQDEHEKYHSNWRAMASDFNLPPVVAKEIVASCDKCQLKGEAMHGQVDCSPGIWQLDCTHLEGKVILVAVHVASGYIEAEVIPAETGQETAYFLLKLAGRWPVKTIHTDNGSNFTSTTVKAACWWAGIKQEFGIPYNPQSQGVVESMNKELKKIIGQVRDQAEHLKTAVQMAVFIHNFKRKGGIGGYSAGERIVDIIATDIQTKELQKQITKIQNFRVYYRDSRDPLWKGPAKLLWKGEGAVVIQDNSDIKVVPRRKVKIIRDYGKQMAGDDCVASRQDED

Row | Structure (SMILES) | IC50 [1] | IC50 [2] | IC50 [3] | IC50 [4] | CC50 (MT4 [5]) | Selectivity index (MT4 [6]) | EC50 [7]
1 | O=C(O)C(=O)/C=C(\O)c1ccc(Oc2ccccc2)cc1 | 11400 nM | – | – | – | – | – | –
2 | O=C(O)C(=O)/C=C(\O)c1cn(Cc2ccccc2)c2ccccc12 | – | 8280 nM | 20 nM | 30 nM | > 78000 nM | > 4 | 19900 nM
3 | CCCCOC(=O)C(=O)/C=C(\O)c1cccn1Cc1ccc(F)cc1 | 100000 nM | – | – | – | – | – | –
4 | O=C(O)C(=O)/C=C(\O)c1cccc(Cc2ccccc2)c1 | 10 nM | – | – | – | – | – | –
5 | CCOC(=O)C(=O)/C=C(\O)c1cn(Cc2ccccc2)c2ccc(OC)cc12 | – | 162000 nM | 150 nM | 680 nM | 29000 nM | 5 | 6070 nM
6 | O=C(O)C(=O)/C=C(\O)c1cn(Cc2ccccc2)c2ccc(Cl)cc12 | – | 970 nM | 10 nM | 100 nM | 37200 nM | 8 | 4780 nM
7 | COc1ccc(Cc2ccccc2)cc1/C(O)=C/C(=O)C(=O)O | 100 nM | – | – | – | – | – | –
8 | COc1ccc2c(c1)c(/C(O)=C/C(=O)C(=O)O)cn2Cc1ccc(F)cc1 | – | 2710 nM | 19 nM | 4 nM | 63500 nM | 11 | 5810 nM
9 | O=C(O)C(=O)/C=C(\O)c1ccc(Cc2ccccc2)s1 | 500 nM | – | – | – | – | – | –
10 | COc1ccc2c(c1)c(/C(O)=C/C(=O)C(=O)O)cn2Cc1ccccc1 | – | 2160 nM | 17 nM | 21 nM | 86400 nM | 16 | 5320 nM
11 | CCOC(=O)C(=O)/C=C(\O)c1cn(Cc2ccccc2)c2ccc(Cl)cc12 | – | 10200 nM | 220 nM | 30 nM | 34000 nM | 8 | 4500 nM
12 | CCOC(=O)C(=O)/C=C(\O)c1cn(Cc2ccc(F)cc2)c2ccccc12 | – | > 272000 nM | 1200 nM | 1500 nM | 27200 nM | 3 | 9250 nM
13 | COc1ccc(/C(O)=C/C(=O)C(=O)O)cc1Cc1ccccc1 | 150 nM | – | – | – | – | – | –
14 | O=C(O)C(=O)/C=C(\O)c1ccsc1Cc1ccccc1 | 180 nM | – | – | – | – | – | –
15 | O=C(O)C(=O)/C=C(\O)c1cccc(Cc2cccc(F)c2)c1 | 250 nM | – | – | – | – | – | –
16 | O=C(O)C(=O)/C=C(\O)c1cn(Cc2ccc(F)cc2)c2ccccc12 | – | 5300 nM | 2 nM | 15 nM | > 74000 nM | > 14 | 5310 nM
17 | O=C(O)C(=O)/C=C(\O)c1cccc(Br)c1 | 2500 nM | – | – | – | – | – | –
18 | O=C(O)C(=O)/C=C(\O)c1cc(OCc2ccccc2)cc(OCc2ccccc2)c1 | 100 nM | – | – | – | – | – | –
19 | CCOC(=O)C(=O)/C=C(\O)c1cn(Cc2ccccc2)c2ccccc12 | – | > 286000 nM | 760 nM | 5400 nM | 120000 nM | 8 | 14300 nM
20 | O=C(O)C(=O)/C=C(\O)c1cn(Cc2ccc(F)cc2)c2ccc(Cl)cc12 | – | 1590 nM | 200 nM | 10 nM | 53400 nM | 19 | 2780 nM
21 | CCOC(=O)C(=O)/C=C(\O)c1cn(Cc2ccc(F)cc2)c2ccc(Cl)cc12 | – | 11500 nM | 390 nM | 70 nM | 26500 nM | 8 | 3420 nM
22 | COc1cc(Cc2ccccc2)cc(/C(O)=C/C(=O)C(=O)O)c1 | 140 nM | – | – | – | – | – | –
23 | CC(C)OC(=O)C(=O)/C=C(\O)c1cccn1Cc1ccc(F)cc1 | 100000 nM | – | – | – | – | – | –
24 | CCC(=O)C(=O)/C=C(\O)c1c[nH]c2ccc(Cl)cc12 | 6900 nM | – | – | – | – | – | –
25 | O=C(O)C(=O)/C=C(\O)c1cccn1Cc1ccccc1 | 220 nM | – | – | – | – | – | –
26 | CCOC(=O)C(=O)/C=C(\O)c1cn(Cc2ccc(F)cc2)c2ccc(OC)cc12 | – | 131000 nM | 220 nM | 800 nM | 127000 nM | 9 | 14300 nM
27 | NC(=O)C(=O)Nc1nc(C(=O)NCc2ccc(F)cc2)c(O)c2ncccc12 | 40 nM | – | – | – | – | – | –
28 | O=C(NCc1ccc(F)cc1)c1nc(N2CCCCS2(=O)=O)c2cccnc2c1O | – | 120 nM | 0.5 nM | 2.5 nM | 2150 nM | 457 | 4.7 nM
29 | O=C(O)C(=O)/C=C(\O)c1ccnc2ccccc12 | 100000 nM | – | – | – | – | – | –
30 | O=C(/C=C(\O)c1c[nH]c2ccc(Cl)cc12)c1nc[nH]n1 | 2000 nM | – | – | – | – | – | –
